The values that follow come from patent publication US20190031599A1, “INDANE DERIVATIVES AS MGLUR7 MODULATORS” (Takeda Pharmaceutical Company Limited, priority 2016, published 2019).

Molecules are shown by their SMILES. Counter-ions that a name gives are not always drawn.

The target of this assay is T1, human mGluR7 (Homo sapiens, UniProt Q14831).
T1 construct: expressed in transfected cells
T1 sequence (Q14831 35-915): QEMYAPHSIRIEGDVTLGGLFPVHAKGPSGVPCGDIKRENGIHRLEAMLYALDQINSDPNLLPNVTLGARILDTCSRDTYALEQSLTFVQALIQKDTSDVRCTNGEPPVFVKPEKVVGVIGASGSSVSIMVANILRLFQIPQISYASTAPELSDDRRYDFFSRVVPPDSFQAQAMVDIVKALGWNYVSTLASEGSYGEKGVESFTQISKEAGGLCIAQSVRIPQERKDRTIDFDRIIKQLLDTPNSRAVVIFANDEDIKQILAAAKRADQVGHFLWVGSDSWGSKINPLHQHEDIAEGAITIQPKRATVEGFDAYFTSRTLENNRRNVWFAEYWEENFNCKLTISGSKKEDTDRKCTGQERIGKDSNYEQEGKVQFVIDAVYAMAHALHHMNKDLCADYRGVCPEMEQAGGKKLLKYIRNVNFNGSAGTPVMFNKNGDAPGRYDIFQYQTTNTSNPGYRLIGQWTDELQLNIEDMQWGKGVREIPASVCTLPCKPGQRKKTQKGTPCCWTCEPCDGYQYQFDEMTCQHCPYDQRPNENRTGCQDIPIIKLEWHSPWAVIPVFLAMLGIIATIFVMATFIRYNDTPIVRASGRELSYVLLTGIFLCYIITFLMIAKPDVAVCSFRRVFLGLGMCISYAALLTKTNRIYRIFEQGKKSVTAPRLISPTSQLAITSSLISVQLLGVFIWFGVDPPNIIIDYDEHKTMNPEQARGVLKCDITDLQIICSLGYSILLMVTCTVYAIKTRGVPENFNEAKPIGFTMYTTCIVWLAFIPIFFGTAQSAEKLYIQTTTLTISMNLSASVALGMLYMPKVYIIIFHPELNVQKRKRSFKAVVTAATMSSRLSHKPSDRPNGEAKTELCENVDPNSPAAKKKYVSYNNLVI
Kind of assay: mGluR7 assay: CRE-directed luciferase reporter gene assay, reduction of forskolin stimulated cAMP production. The class given is cell-based. The conditions noted are these: stable CHO cell line expressing the CRE-luc reporter and human mGluR7 genes; decrease of forskolin stimulated luminescence; 10-point concentration-response, duplicate wells. As for the experimental part: The ability of the test compounds to activate mGluR7 was determined by their ability to reduce forskolin stimulated cAMP production. Compounds were assessed in a CRE-directed luciferase reporter gene assay, using a stable CHO cell line expressing the CRE-luc reporter and human mGluR7 genes. In this cell line, production of cAMP stimulated the transcription of the luciferase gene and luciferase activity was then measured in a luminescent enzyme assay (Steady Glo assay; Promega E2550). Activation of mGluR7 decreased the forskolin stimulated luminescence signal.
The day prior to the assay, compounds were serially diluted in DMSO (100× final assay concentration (FAC)), in 384-well plates which were then stored in the dark at room temperature (RT) until use. Cells were seeded at 12.5 k/well in white, clear bottom 384-well plates (Corning 3707) and left for one hour at RT followed by an overnight incubation (37° C.). The following day, the DMSO compound plate was diluted 1:20 (5× FAC) in Opti-MEM I (Life Technologies 11058021). The growth media was removed from the cell plate and replaced with 15 μl Opti-MEM I, followed by a 5 μl addition from the 5× compound plate and a fifteen minute incubation (37° C.). Forskolin (Sigma F3917) was then added to the wells (5 μl of 2.5 μM) and the plate was incubated for five hours (37° C.). During this incubation, the Steady Glo Substrate reagent was warmed to 37° C. Aliquots (11 ml; stored at −20° C.) of this reagent were prepared by dissolving the contents of 1 vial of lyophilised substrate in 100 ml Steady-Glo buffer. A 25 μl addition of the substrate was made to all wells and the plate was incubated for thirty minutes at RT, on a plate shaker (300 rpm; in the dark). Luminescence was then measured using the EnVision Multilabel Reader (Perkin Elmer).
Compound activity was examined using a 10-point, half log concentration-response range and each concentration was tested in duplicate wells. Luminescence values were normalised to ‘maximum’ (forskolin alone) and ‘minimum’ (forskolin in the presence of tool mGluR7 agonist) controls.
A general note: A reporter such as luciferase makes a cellular process visible.
`CC(C(=O)N[C@H]1Cc2ccccc2[C@@H]1N)c1ccc(Cl)cc1` (single isomer, unassigned) [Example 69]: the EC50 (as a rule, the concentration that produces a half-maximal response) was found to be 47 nM. In turn, `CS(=O)(=O)C1c2ccccc2CC1NC(=O)C(OCC1CC1)c1ccccc1` (single isomer, unassigned) [Example 146, 2-(cyclopropylmethoxy)-N-(trans)-(1-methanesulfonyl-2,3-dihydro-1H-inden-2-yl)-2-phenylacetamide] gave a 50% effective concentration (EC50) of 4 nM. The compound `N[C@H]1c2ccccc2C[C@@H]1NC(=O)C(c1ccc(F)cc1F)N1CC(F)C1` (single isomer, unassigned) [Example 106] gave an EC50 of 81 nM. `C[C@H](C(=O)N[C@H]1Cc2ccccc2[C@@H]1NC1CCC1)c1ccc(F)cc1F` [Example 91, (2S)—N-[(1S,2S)-1-(cyclobutylamino)-2,3-dihydro-1H-inden-2-yl]-2-(2,4-difluorophenyl)propanamide] yielded an EC50 of 38 nM. `C[C@H](C(=O)N[C@H]1Cc2ccccc2[C@@H]1N)c1ccc(F)cc1F` [Example 34, (2S)—N-[(1S,2S)-1-amino-2,3-dihydro-1H-inden-2-yl]-2-(2,4-difluorophenyl)propanamide] came in with an EC50 of 95 nM. `COC1c2ccccc2CC1NC(=O)[C@@H](C)c1ccc(F)cc1` (single isomer, unassigned) [Example 38] returned an EC50 of 16 nM.

`Cc1nccn1C(C(=O)N[C@H]1Cc2ccccc2[C@@H]1NC(=O)OC(C)(C)C)c1ccc(F)cc1F` (mixture of isomers) [Example 82, tert-butyl N-[(1S,2S)-2-[2-(2,4-difluorophenyl)-2-(2-methyl-1H-imidazol-1-yl)acetamido]-2,3-dihydro-1H-inden-1-yl]carbamate] came in with an EC50 of 772 nM. In turn, `CC(C)(C)OC(=O)N[C@H]1c2ccccc2C[C@@H]1NC(=O)C(c1ccc(F)cc1F)n1cccn1` (mixture of isomers) [Example 81, tert-butyl N-[(1S,2S)-2-[2-(2,4-difluorophenyl)-2-(1H-pyrazol-1-yl)acetamido]-2,3-dihydro-1H-inden-1-yl]carbamate] displayed an EC50 of 83 nM.

Turning to `CS(=O)(=O)C1c2ccccc2CC1NC(=O)C(OCC1CC1)c1ccccc1` (single isomer, unassigned) [Example 147, 2-(cyclopropylmethoxy)-N-(trans)-(1-methanesulfonyl-2,3-dihydro-1H-inden-2-yl)-2-phenylacetamide], a half-maximal response (EC50) required 39 nM.

Consider `COC1c2ccccc2CC1NC(=O)[C@@H](C)c1ccccc1` (single isomer, unassigned) [Example 8], for which the EC50 is 57 nM.

In turn, `CC(C(=O)N[C@H]1Cc2ccccc2[C@@H]1NC(=O)OC(C)(C)C)c1ccc(F)cc1Cl` (stereo partly drawn) [Example 153, tert-butyl N-[(1S,2S)-2-[2-(2-chloro-4-fluorophenyl)propanamido]-2,3-dihydro-1H-inden-1-yl]carbamate] showed an EC50 of 63 nM. Regarding `C[C@H](C(=O)NC1Cc2ccccc2C1O)c1ccccc1` (single isomer, unassigned) [Example 3], the response was half-maximal at 349 nM (EC50). The compound `N[C@H]1c2ccccc2C[C@@H]1NC(=O)C(c1ccc(F)cc1)N1CC(F)C1` (single isomer, unassigned) [Example 116] had an EC50 of 241 nM. In turn, `C[C@H](C(=O)NC1Cc2ccccc2C1O)c1ccc(F)cc1` (stereo in doubt) [Example 61, (2S)-2-(4-fluorophenyl)-N-(trans)-(1-hydroxy-2,3-dihydro-1H-inden-2-yl)propanamide] displayed an EC50 of 56 nM. Compound `COC1c2ccccc2CC1NC(=O)[C@@H](C)c1ccccc1` (stereo in doubt) [Example 10, (2S)—N-((cis)-1-methoxy-2,3-dihydro-1H-inden-2-yl)-2-phenylpropanamide] yielded an EC50 of 1030 nM. The same measure for `C[C@H](C(=O)N[C@H]1Cc2ccccc2[C@@H]1NCC1CCOCC1)c1ccc(F)cc1F` [Example 40, (2S)-2-(2,4-difluorophenyl)-N-[(1S,2S)-1-{[(oxan-4-yl)methyl]amino}-2,3-dihydro-1H-inden-2-yl]propanamide]: 23 nM. The compound `CS(=O)(=O)C1c2ccccc2CC1NC(=O)C(OCC1CC1)c1ccccc1` (single isomer, unassigned) [Example 148, 2-(cyclopropylmethoxy)-N-(trans)-(1-methanesulfonyl-2,3-dihydro-1H-inden-2-yl)-2-phenylacetamide] had an EC50 of 16 nM.

Compound `COC1c2ccccc2CC1NC(=O)[C@@H](NC(=O)C1CC1)c1ccc(F)cc1` (single isomer, unassigned) [Example 102] had an EC50 of 6 nM. The figure for `CCOC1c2ccccc2CC1NC(=O)C(C)c1ccc(F)cc1F` (single isomer, unassigned) [Example 30] is 22 nM; for `CS(=O)(=O)C1c2ccccc2CC1NC(=O)C(OCC1CC1)c1ccccc1` (single isomer, unassigned) [Example 145, 2-(cyclopropylmethoxy)-N-(trans)-(1-methanesulfonyl-2,3-dihydro-1H-inden-2-yl)-2-phenylacetamide] it is 0.6 nM; for `CC(C(=O)N[C@H]1Cc2ccccc2[C@@H]1NC(=O)OC(C)(C)C)c1ccc(F)cc1C(F)(F)F` (stereo partly drawn) [Example 154, tert-butyl N-[(1S,2S)-2-{2-[4-fluoro-2-(trifluoromethyl)phenyl]propanamido}-2,3-dihydro-1H-inden-1-yl]carbamate] it is 326 nM.

In the case of `CCC(C(=O)N[C@H]1Cc2ccccc2[C@@H]1N)c1ccc(F)cc1F` (single isomer, unassigned) [Example 15], the EC50 was 25 nM. As to `N[C@H]1c2ccccc2C[C@@H]1NC(=O)C(c1ccc(F)cc1F)N1CC(F)C1` (stereo partly drawn) [Example 105, N-[(1S,2S)-1-amino-2,3-dihydro-1H-inden-2-yl]-2-(2,4-difluorophenyl)-2-(3-fluoroazetidin-1-yl)acetamide], it took 146 nM to reach a half-maximal effect (EC50). The figure for `N[C@H]1c2ccccc2C[C@@H]1NC(=O)C(c1ccc(F)cc1)C1CC1` (stereo partly drawn) [Example 86, N-[(1S,2S)-1-amino-2,3-dihydro-1H-inden-2-yl]-2-cyclopropyl-2-(4-fluorophenyl)acetamide] is 721 nM; for `N[C@H]1c2ccccc2C[C@@H]1NC(=O)C(c1ccc(F)cc1F)n1ncccc1=O` (single isomer, unassigned) [Example 109] it is 573 nM. For the compound `CC(C)(C)OC(=O)N[C@H]1c2ccccc2C[C@@H]1NC(=O)C1(c2ccccc2)CNC(=O)C1` (stereo partly drawn) [Example 121, tert-butyl N-[(1S,2S)-2-(5-oxo-3-phenylpyrrolidine-3-amido)-2,3-dihydro-1H-1-inden-1-yl]carbamate], the EC50 is 42 nM.

Consider `COC1c2ccccc2CC1NC(=O)[C@@H](C)c1ccc(F)cc1F` (mixture of isomers) [Example 25, (2S)-2-(2,4-difluorophenyl)-N-((trans)-1-methoxy-2,3-dihydro-1H-inden-2-yl)propanamide], for which a half-maximal effect (EC50) was put at 24 nM.

Turning to `N[C@H]1c2ccccc2C[C@@H]1NC(=O)C(c1ccc(F)cc1)N1CC(F)C1` (single isomer, unassigned) [Example 115], the 50% effective concentration (EC50) was 181 nM. On to `CN[C@@H]1c2ccccc2C[C@H]1NC(=O)[C@H](C)c1ccc(F)cc1` [Example 155, (2R)-2-(4-fluorophenyl)-N-[(1R,2R)-1-(methylamino)-2,3-dihydro-1H-inden-2-yl]propanamide], for which the EC50 stood at 2220 nM.

The compound `N[C@H]1c2ccccc2C[C@@H]1NC(=O)C(c1ccc(F)cc1F)N1CC(F)C1` (single isomer, unassigned) [Example 107] had a 50% effective concentration (EC50) of 1220 nM. For the compound `N[C@H]1c2ccccc2C[C@@H]1NC(=O)C(c1ccc(F)cc1F)n1ccccc1=O` (single isomer, unassigned) [Example 50], the 50% effective concentration (EC50) was determined as 3920 nM. Compound `CCC(C(=O)N[C@@H]1Cc2ccccc2[C@H]1N)c1ccc(F)cc1F` (stereo partly drawn) [Example 17, N-[(1R,2R)-1-amino-2,3-dihydro-1H-inden-2-yl]-2-(2,4-difluorophenyl)butanamide hydrochloride] had an EC50 of 195 nM. Compound `N[C@H]1c2ccccc2C[C@@H]1NC(=O)C(c1ccc(F)cc1F)N1CCC1` (stereo partly drawn) [Example 108, N-[(1S,2S)-1-amino-2,3-dihydro-1H-inden-2-yl]-2-(azetidin-1-yl)-2-(2,4-difluorophenyl)acetamide] came in with an EC50 of 190 nM.

The compound `C[C@H](C(=O)N[C@H]1Cc2ccccc2[C@@H]1NS(C)(=O)=O)c1ccc(F)cc1F` [Example 89, (2S)-2-(2,4-difluorophenyl)-N-[(1S,2S)-1-methanesulfonamido-2,3-dihydro-1H-inden-2-yl]propanamide] had a 50% effective concentration (EC50) of 1610 nM. The same measure for `CC(C(=O)N[C@H]1Cc2ccccc2[C@@H]1NC(=O)OC(C)(C)C)c1ccc(OC(F)F)cc1` (stereo partly drawn) [Example 151, tert-butyl N-[(1S,2S)-2-{2-[4-(difluoromethoxy)phenyl]propanamido}-2,3-dihydro-1H-inden-1-yl]carbamate]: 441 nM.
